Assay results as given in the NIST ThermoML archive (doi:10.1021/je200616t).

Experiment: xn = mol fraction of the nth substance listed
Details: 101 kPa, Liquid, MP522 conductivity instrument

CCCC[n+]1ccccc1.O=S(=O)([N-]S(=O)(=O)C(F)(F)F)C(F)(F)F [1-butylpyridinium bis[(trifluoromethyl)sulfonyl]imide] + CC1COC(=O)O1
electrical conductivity [S/m]
Details	283.15 K	293.15 K	298.15 K	303.15 K	313.15 K
x1 = 0.0282	0.356	0.444	0.489	0.538	0.635
x1 = 0.0553	0.536	0.672	0.745	0.821	0.976
x1 = 0.0934	0.66	0.84	0.933	1.03	1.24
x1 = 0.1235	0.701	0.896	1	1.12	1.34
x1 = 0.1897	0.686	0.902	1.02	1.15	1.4
x1 = 0.269	0.607	0.821	0.938	1.07	1.34
x1 = 0.3709	0.493	0.692	0.802	0.927	1.19
x1 = 0.4666	0.4	0.58	0.681	0.798	1.04
x1 = 0.5668	0.323	0.483	0.575	0.679	0.906
x1 = 0.6944	0.248	0.386	0.467	0.561	0.764
x1 = 0.7943	0.208	0.33	0.403	0.489	0.681
x1 = 0.8591	0.188	0.3	0.367	0.448	0.628
x1 = 0.9208	0.17	0.275	0.338	0.415	0.587
x1 = 0.9715	0.157	0.256	0.317	0.392	0.556
x1 = 1	0.15	0.246	0.307	0.378	0.54

CCCC[n+]1ccccc1.O=S(=O)([N-]S(=O)(=O)C(F)(F)F)C(F)(F)F [1-butylpyridinium bis[(trifluoromethyl)sulfonyl]imide] + CC#N
electrical conductivity [S/m]
Details	283.15 K	293.15 K	298.15 K	303.15 K	313.15 K
x1 = 0.0379	3.17	3.52	3.68	3.85	4.19
x1 = 0.0652	3.38	3.77	3.96	4.16	4.55
x1 = 0.1114	3.28	3.72	3.94	4.18	4.64
x1 = 0.1566	2.84	3.3	3.54	3.78	4.26
x1 = 0.217	2.22	2.67	2.89	3.13	3.6
x1 = 0.3137	1.46	1.83	2.02	2.23	2.66
x1 = 0.4004	1.01	1.31	1.48	1.66	2.04
x1 = 0.513	0.653	0.897	1.03	1.18	1.5
x1 = 0.6732	0.371	0.546	0.647	0.762	1.01
x1 = 0.7658	0.282	0.427	0.512	0.611	0.83
x1 = 0.8473	0.223	0.348	0.424	0.511	0.708
x1 = 0.8897	0.2	0.316	0.388	0.47	0.657
x1 = 0.9649	0.167	0.261	0.33	0.405	0.576
x1 = 1	0.151	0.246	0.307	0.377	0.542
